Data set [1] can be described thus: Metabolic stability in human liver microsomes assessed as parent compound remaining at 0.5 uM after 10 mins. To be noted: read-out: Stabilty. The class given is ADME, Microsome. Background: Liver microsomes are vesicles of endoplasmic reticulum, rich in cytochrome P450 enzymes.
Data set [2] in a line: Permeability of the compound at pH 7.4 by PAMPA. Type of data set: ADME. To be noted: read-out: permeability. (In PAMPA a lipid-coated filter parts donor from acceptor wells.)
Data set [3] is described as follows: AUC in mouse at 10 mg/kg, po. Also on record: dose 10 mg/kg. As to conditions: in vivo. Type of data set: ADME, organism-based.
The nature of data set [4]: Permeability of the compound at pH 5.5 by PAMPA. The class given is ADME. As to conditions: read-out: permeability.
Data set [5] in a line: Cmax in mouse at 10 mg/kg, po. Type of data set: ADME, organism-based. Also on record: route oral, dose 10 mg/kg. To be noted: in vivo.
The nature of data set [6]: Metabolic stability in human liver microsomes assessed as half life. Type of data set: ADME, Microsome.
A short description of data set [7]: AUC in mouse at 2 mg/kg, po. Type of data set: ADME, organism-based. As to conditions: in vivo. Also on record: dose 2 mg/kg.
Data set [8] can be described thus: Cmax in mouse at 2 mg/kg, po. Type of data set: ADME, organism-based. Also on record: route oral, dose 2 mg/kg. To be noted: in vivo.

On to `COc1cccc([C@@H](C)NC(=O)c2ccc(-c3cn[nH]c3)cc2OC)c1`, for which the remaining at 10 min, 0.5 µM in data set [1] turned out to be 49%.

For `COc1cccc([C@@H](C)NC(=O)c2ccc(-c3cn[nH]c3)c(OC)c2)c1`, the remaining at 10 min, 0.5 µM in data set [1] is 32%.

As to `COc1cccc(CNC(=O)c2ccc(-c3cn[nH]c3)c(OC)c2)c1`, the remaining at 10 min, 0.5 µM in data set [1] was 49%.

On to `COc1cc(C(=O)N[C@H](CO)c2ccccc2)ccc1-c1cn[nH]c1`, for which the values for the Papp in data set [2] and in data set [4] were 11 ×10⁻⁶ cm/s and 10.5 ×10⁻⁶ cm/s, respectively. The area under the curve (AUC) (usually the area under the concentration-time curve, a measure of exposure) in data set [3] was 90 µM·h. The remaining at 10 min, 0.5 µM in data set [1] was determined as 87%. Also, in data set [5], the peak concentration (Cmax) (commonly the peak of the concentration-time curve) amounted to 21 µM.

As to `COc1cccc([C@@H](C)NC(=O)c2ccc(-c3cn[nH]c3)c(Cl)c2)c1`, the remaining at 10 min, 0.5 µM in data set [1] was determined as 59%.

In the case of `COc1cccc([C@@H](C)NC(=O)c2ccc(-c3cn[nH]c3)c(OC)c2F)c1`, the remaining at 10 min, 0.5 µM in data set [1] stood at 57%.

For the compound `COc1cccc([C@@H](C)NC(=O)c2ccc(-c3cn[nH]c3)c(C)c2)c1`, the values for the Papp in data set [2] and in data set [4] were 20 ×10⁻⁶ cm/s and 29 ×10⁻⁶ cm/s, respectively. The same compound showed an area under the curve (AUC) in data set [3] of 35 µM·h. The remaining at 10 min, 0.5 µM in data set [1] came to 74%. In data set [5], this compound registered a Cmax of 12 µM.

`COc1cccc([C@@H](C)NC(=O)c2ccc(-c3cn[nH]c3)c(C(F)(F)F)c2)c1`: in data set [1], the remaining at 10 min, 0.5 µM worked out at 44%.

Consider `COc1cc(C(=O)N[C@H](CN)c2ccccc2)ccc1-c1cn[nH]c1`, for which the remaining at 10 min, 0.5 µM in data set [1] came to 93%.

Consider `COc1cccc([C@@H](C)NC(=O)c2ccc(-c3cn[nH]c3)c(C#N)c2)c1`, for which the remaining at 10 min, 0.5 µM in data set [1] came to 67%.

Turning to `COc1cc(NC(=O)[C@H](N)CCc2ccccc2)ccc1-c1cn[nH]c1`, the Papp in data set [2] was 74 ×10⁻⁶ cm/s; in data set [4], 45 ×10⁻⁶ cm/s. The same compound registered an AUC in data set [3] of 140 µM·h. In addition, the half-life – broadly, the time needed for the level to fall by half in the phase considered – in data set [6] was found to be 41 min. In addition, the peak concentration (Cmax) in data set [5] was 28 µM.

For the compound `COc1cc(C(=O)N[C@H](C)c2c(F)cccc2F)ccc1-c1cn[nH]c1`, the Papp in data set [2] and in data set [4] was 61 ×10⁻⁶ cm/s throughout. In data set [3], the exposure (AUC) is 140 µM·h. Further, the remaining at 10 min, 0.5 µM in data set [1] came to 79%. This compound also returned a peak concentration (Cmax) in data set [5] of 23 µM.

Take `COc1cc(NC(=O)[C@@H](N)CCc2ccccc2)ccc1-c1cn[nH]c1`: the half-life in data set [6] worked out at 62 min.

Take `COc1cc(C(=O)N[C@H](C)c2ccccc2F)ccc1-c1cn[nH]c1`: in data set [1], the remaining at 10 min, 0.5 µM is 73%.

With `COc1cc(NC(=O)Cc2ccccc2Cl)ccc1-c1cn[nH]c1`, the half-life in data set [6] was determined as 36 min.

As for `COc1cc(C(=O)N[C@@H](c2ccccc2F)C(C)(C)O)ccc1-c1cn[nH]c1`, the Papp in data set [2] was found to be 44 ×10⁻⁶ cm/s; in data set [4], 52 ×10⁻⁶ cm/s. The compound also registered an AUC in data set [7] of 5 µM·h. Besides, the Cmax in data set [8] is 1.3 µM. Besides, in data set [1], the remaining at 10 min, 0.5 µM stood at 92%.

With `COc1cc(NC(=O)[C@H](N)Cc2ccc(Cl)c(Cl)c2)ccc1-c1cn[nH]c1`, the half-life in data set [6] worked out at 31 min.

For `COc1cc(NC(=O)[C@H](N)c2ccccc2Cl)ccc1-c1cn[nH]c1`, the half-life in data set [6] amounted to 20 min.

In the case of `COc1cc(NC(=O)[C@H](O)c2ccccc2Cl)ccc1-c1cn[nH]c1`, in data set [6], the half-life turned out to be 15 min.

As to `CCc1cc(C(=O)N[C@H](C)c2cccc(OC)c2)ccc1-c1cn[nH]c1`, in data set [1], the remaining at 10 min, 0.5 µM worked out at 38%.

As to `COc1cc(C(=O)N[C@H](CO)c2c(F)cccc2F)ccc1-c1cn[nH]c1`, in data set [1], the remaining at 10 min, 0.5 µM turned out to be 90%.

For the origin of these results see ChEMBL document CHEMBL4665755, “Discovery of a phenylpyrazole amide ROCK inhibitor as a tool molecule for in vivo studies” (Bioorg Med Chem Lett, 2020).
